In test [1] the test system is human pancreatic cancer cell line MIA PaCa-2. The following applies: 24 h. As to the method:
Data are presented as preferential cytotoxicity (PC50) values, which represent the concentration that kills 50% of cancer cells in a nutrient-deprived medium (NDM) without any toxicity in a nutrient-rich medium DMEM (Dulbecco’s Modified Eagle Medium).
(§1) Briefly, MIA PaCa-2, HepG2 and MCF-7 Cells (2 × 10^4 cells/well) were seeded in 96-well plates and incubated in fresh DMEM. The cells were washed with Dulbecco’s phosphate-buffered saline (PBS) before the medium was replaced with DMEM or NDM containing serial dilutions of the test samples. After 24 h of incubation, the cells were washed with PBS, and 100 μL of DMEM containing 10% WST-8 cell counting kit solution was added to each well. After 3 h of incubation, the absorbance was measured at 450 nm. Cell viability was calculated from the mean values for three wells. The preferential cytotoxicity was expressed as the concentration at which 50% of cells died preferentially in NDM (PC50).
Pancreatic cancer cells (MIA PaCa-2 cells) were kindly provided by Dr. Suresh Awale, an Associate Professor at Institute of Natural Medicine, University Toyama, Toyama, Japan. MIA PaCa-2 (RBRC-RCB2094), human pancreatic cancer cell lines were purchased from Riken BRC cell bank.

In test [2] the test system is MCF-7 (human breast cancer cells). The following applies: 24 h. The method, then:
(§2) Finally, the anti-austerity activity on two other different cancer cell lines was studied. Preferential cytotoxicity was assessed in a nutrient-deprived medium. Esumi et al. hypothesized that tolerance to nutrient deprivation as well as angiogenesis might be an important factor in tumor progression under hypovascular condition.
as §1

Test [3] has as its system HepG2 (human liver cancer cells). The following applies: 24 h. As to the method: as §2, §1
For test [4], the system named is Kocuria rhizophila NBRC 12708. The method, then: (§3) Previously, three theonellapeptolide members capped with a unique acyl group at their N-termini such as methylsulfinylacetyl, methylsulfanylacetyl, and acetyl were isolated by Tsuda et al. from Okinawan marine sponge Theonella sp.. Furthermore, the antibacterial activity of these variants was evaluated against four bacterial and six fungal strains. […] To the best of our knowledge, there is no report on the antibacterial activity of theonellapeptolides with methoxyacetyl group. This encouraged us to investigate the antibacterial activity of 1–6 against the Gram-negative bacterium Escherichia coli JW5503 and the Gram-positive bacteria Bacillus cereus NBRC 15305 and Kocuria rhizophila NBRC 12708.
(§4) After incubation for 22 h (30 °C), the obtained optical density was recorded using Tecan infinite® M200 plate reader at 600 nm to determine percent growth inhibition.

The test system of test [5] is Bacillus cereus NBRC 15305. The method, then:
as §3, §4

The subject of test [6] is Escherichia coli JW5503. As to the method:
as §3, §4

Where [7] appears, read: read-out: IC50 in DMEM, MIA PaCa-2, nutrient-rich DMEM, WST-8, absorbance 450 nm, mean of three wells.
Setting [8] is: read-out: PC50 in NDM, MIA PaCa-2, preferential cytotoxicity, nutrient-deprived medium (NDM), WST-8, mean of three wells.
Where [9] appears, read: read-out: IC50 in DMEM, MCF7, nutrient-rich DMEM, WST-8, absorbance 450 nm, mean of three wells.
The mark [10] stands for this setting: read-out: PC50 in NDM, MCF7, preferential cytotoxicity, nutrient-deprived medium (NDM), WST-8, mean of three wells.
Where [11] appears, read: read-out: IC50 in DMEM, HepG2, nutrient-rich DMEM, WST-8, absorbance 450 nm, mean of three wells.
Where [12] appears, read: read-out: PC50 in NDM, HepG2, preferential cytotoxicity, nutrient-deprived medium (NDM), WST-8, mean of three wells.
Where [13] appears, read: Escherichia coli JW5503, 96-well microbroth dilution (CLSI), triplicate, 22 h, 30 °C, OD 600 nm.
The mark [14] stands for this setting: Kocuria rhizophila NBRC 12708, 96-well microbroth dilution (CLSI), triplicate, 22 h, 30 °C, OD 600 nm.
Setting [15] is: Bacillus cereus NBRC 15305, 96-well microbroth dilution (CLSI), triplicate, 22 h, 30 °C, OD 600 nm.

Where two headings read alike, the source gives them in different places. *1 amine or outer side, *2 acyl side, *3 side chain or, on linkers, in order; H or OH if unused. Where a SMILES comes first, the peptide text is derived from it. Bridges are numbered along the chain shown (N, C = ends). [ ]: non-standard residue; d: D form. The star is where a group is joined. dNMeaIle = CC[C@H](C)[C@@H](NC)C(=O)O; d(aIle) = CC[C@H](C)[C@@H](N)C(=O)O; NMeI = CC[C@H](C)[C@H](NC)C(=O)O; NMeβAla = CN(CCC(=O)[*:2])[*:1]; dNMeL = CN[C@H](CC(C)C)C(=O)O; dNMeV = CN[C@@H](C(=O)O)C(C)C; NMeV = CN[C@H](C(=O)O)C(C)C; Methoxyacetyl = COCC(=O)*; NMeA = CN[C@@H](C)C(=O)O; βAla = NCCC(=O)O

As to `CC[C@H](C)[C@H]1NC(=O)CCNC(=O)[C@@H](C(C)C)N(C)C(=O)[C@@H](CC(C)C)NC(=O)CCNC(=O)[C@@H](NC(=O)[C@@H](CC(C)C)N(C)C(=O)[C@@H](NC(=O)COC)C(C)C)[C@@H](C)OC(=O)[C@@H]([C@@H](C)CC)N(C)C(=O)[C@@H](CC(C)C)NC(=O)CCNC(=O)[C@H](C)NC(=O)[C@H](C(C)C)N(C)C1=O` [Compound 1, theonellapeptolide IIb] (Methoxyacetyl-V[dNMeL]T[βAla][dL][dNMeV][βAla][d(aIle)][NMeV]A[βAla][dL][dNMeaIle]; ester 3-C), the IC50 in test [1] (setting [7]) is more than 100 µM; in test [1] (setting [8]), 42.8 µM; in test [2] (setting [9]), more than 100 µM; in test [2] (setting [10]), more than 100 µM; in test [3] (setting [11]) it was more than 100 µM; in test [3] (setting [12]), more than 100 µM. Moreover, the “MIC, KR” value in test [4] (NBRC 12708, 22 h) is more than 66 µM. The “MIC, BC” value in test [5] (NBRC 15305, 22 h) was more than 66 µM. Moreover, in test [6] (setting [13]), the “MIC, EC” value is more than 66 µM.
Consider `CC[C@H](C)[C@H]1NC(=O)CCNC(=O)[C@@H](C(C)C)NC(=O)[C@@H](CC(C)C)NC(=O)CCNC(=O)[C@@H](NC(=O)[C@@H](CC(C)C)N(C)C(=O)[C@@H](NC(=O)COC)C(C)C)[C@@H](C)OC(=O)[C@@H]([C@@H](C)CC)N(C)C(=O)[C@@H](CC(C)C)NC(=O)CCNC(=O)[C@H](C)NC(=O)[C@H](C(C)C)N(C)C1=O` [Compound 2, theonellapeptolide IIa] (Methoxyacetyl-V[dNMeL]T[βAla][dL][dV][βAla][d(aIle)][NMeV]A[βAla][dL][dNMeaIle]; ester 3-C), for which the IC50 in test [1] (setting [7]) is more than 100 µM; in test [1] (setting [8]), 33.4 µM; in test [2] (setting [9]), more than 100 µM; in test [2] (setting [10]), more than 100 µM; in test [3] (setting [11]), more than 100 µM; in test [3] (setting [12]), more than 100 µM. Besides, the “MIC, KR” value in test [4] (setting [14]) is on record as more than 66 µM. The “MIC, BC” value in test [5] (setting [15]) is given as more than 66 µM. Further, the “MIC, EC” value in test [6] (setting [13]) is on record as more than 66 µM.
For `CC[C@H](C)[C@H]1NC(=O)CCNC(=O)[C@H](C(C)C)N(C)C(=O)[C@@H](CC(C)C)NC(=O)CCN(C)C(=O)[C@@H](NC(=O)[C@@H](CC(C)C)N(C)C(=O)[C@@H](NC(=O)COC)C(C)C)[C@@H](C)OC(=O)[C@@H]([C@@H](C)CC)N(C)C(=O)[C@@H](CC(C)C)NC(=O)CCNC(=O)[C@H](C)NC(=O)[C@H](C(C)C)N(C)C1=O` [Compound 3, theonellapeptolide IIc] (Methoxyacetyl-V[dNMeL]T[NMeβAla][dL][NMeV][βAla][d(aIle)][NMeV]A[βAla][dL][dNMeaIle]; ester 3-C), the IC50 in test [1] (setting [7]) is 73.2 µM; in test [1] (setting [8]), 10 µM; in test [2] (setting [9]), more than 100 µM; in test [2] (setting [10]), more than 100 µM; in test [3] (setting [11]), more than 100 µM; in test [3] (setting [12]), more than 100 µM. In addition, the “MIC, KR” value in test [4] (setting [14]) is given as more than 66 µM. Besides, the “MIC, BC” value in test [5] (setting [15]) was more than 66 µM. In addition, in test [6] (setting [13]), the “MIC, EC” value was more than 66 µM.
With `CC[C@H](C)[C@H]1C(=O)NCCC(=O)N[C@H]([C@@H](C)CC)C(=O)N(C)[C@@H](C(C)C)C(=O)N[C@@H](C)C(=O)NCCC(=O)N[C@H](CC(C)C)C(=O)N(C)[C@H]([C@@H](C)CC)C(=O)O[C@H](C)[C@H](NC(=O)[C@@H](CC(C)C)N(C)C(=O)[C@@H](NC(=O)COC)C(C)C)C(=O)N(C)CCC(=O)N[C@H](CC(C)C)C(=O)N1C` [Compound 5, theonellapeptolide IIe] (Methoxyacetyl-V[dNMeL]T[NMeβAla][dL][NMeI][βAla][d(aIle)][NMeV]A[βAla][dL][dNMeaIle]; ester 3-C), the IC50 in test [1] (setting [7]) was 40.4 µM; in test [1] (setting [8]), 3.5 µM; in test [2] (setting [9]), more than 100 µM; in test [2] (setting [10]) it was more than 100 µM; in test [3] (setting [11]), more than 100 µM; in test [3] (setting [12]), more than 100 µM. Further, in test [4] (NBRC 12708, 22 h), the “MIC, KR” value is more than 66 µM. Further, the “MIC, BC” value in test [5] (NBRC 15305, 22 h) is on record as more than 66 µM. In test [6] (JW5503, 22 h), the “MIC, EC” value is recorded as more than 66 µM.
With `CC[C@H](C)[C@H]1C(=O)NCCC(=O)N[C@H]([C@@H](C)CC)C(=O)N(C)[C@@H](C(C)C)C(=O)N(C)[C@@H](C)C(=O)NCCC(=O)N[C@H](CC(C)C)C(=O)N(C)[C@H]([C@@H](C)CC)C(=O)O[C@H](C)[C@H](NC(=O)[C@@H](CC(C)C)N(C)C(=O)[C@@H](NC(=O)COC)C(C)C)C(=O)NCCC(=O)N[C@H](CC(C)C)C(=O)N1C` [Compound 6, theonellapeptolide Id] (Methoxyacetyl-V[dNMeL]T[βAla][dL][NMeI][βAla][d(aIle)][NMeV][NMeA][βAla][dL][dNMeaIle]; ester 3-C), the IC50 in test [1] (setting [7]) was 42.7 µM; in test [1] (setting [8]) it was 8.2 µM; in test [2] (setting [9]), more than 100 µM; in test [2] (setting [10]), more than 100 µM; in test [3] (setting [11]), more than 100 µM; in test [3] (setting [12]) it was more than 100 µM. In test [4] (NBRC 12708, 22 h), the “MIC, KR” value is more than 66 µM. The “MIC, BC” value in test [5] (NBRC 15305, 22 h) is recorded as more than 66 µM. Also, the “MIC, EC” value in test [6] (JW5503, 22 h) is more than 66 µM.

Values taken from publication PMC9697519, “New Theonellapeptolides from Indonesian Marine Sponge Theonella swinhoei as Anti-Austerity Agents” (Marine Drugs, 2022).
